According to patent publication US10973807B2, “Pharmaceutical composition comprising pyrrolo-fused six-membered heterocyclic compound” (Jiangsu Hengrui Medicine Co., Ltd., priority 2016, dated 2021):

Legend:
[1] = Stability in the presence of moisture; assay type: physicochemical; conditions: compound or a pharmaceutically acceptable salt thereof
Water solubility = assay type: physicochemical; conditions: compound or a pharmaceutically acceptable salt thereof

## CCN(CC)CCN1CCc2[nH]c(/C=C3\C(=O)Nc4ccc(F)cc43)c(C)c2C1=O.O=C(O)C[C@H](O)C(=O)O [compound of formula (I), 5-(2-diethylamino-ethyl)-2-(5-fluoro-2-oxo-1,2-dihydro-indol-3-ylidene-methyl)-3-methyl-1,5,6,7-tetrahydro-pyrrolo[3,2-c]pyridin-4-one]
[1]
  stability in the presence of moisture: unstable
Water solubility
  water solubility: poor
